Reference: the supplement of paper PMC11451515

Columns and labels:
Experiment in all cases: AUC of viability dose-response curve (% viability x log10 dose units); higher = less sensitive
Conditions in all cases: 48 h
[1] = test system: P12-Ichikawa
Method in brief: (§1)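 Viability of medium-adapted leukemia cells was measured by CellTiter-Glo One luminescence after 48 h at 37°C with library compounds in DMSO. Doses were 11 threefold steps from 47 μM to 0.79 nM, in 1536-well plates at 500 or 1000 cells/well. Signals were normalised per plate to DMSO and cell-free wells and fitted with a four-parameter log-logistic model on log10 dose. Area under the curve was integrated by trapezoidal rule, with curves exceeding full viability scaled and failed quality-control curves removed.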

[2] = test system: NOMO1
Method in brief: as §1

[3] = test system: SEM cells
Method in brief: as §1

[4] = RPMI 5 mM glucose + 10% dialyzed FBS

| Structure (SMILES) | AUC of viability dose-response curve ([1]; HPLM + 10% dialyzed FBS) | AUC of viability dose-response curve ([1]; RPMI 5 mM glucose + 10% FBS) | AUC of viability dose-response curve [1, 4] | AUC of viability dose-response curve ([2]; HPLM + 10% dialyzed FBS) | AUC of viability dose-response curve ([2]; RPMI 5 mM glucose + 10% FBS) | AUC of viability dose-response curve [2, 4] | AUC of viability dose-response curve ([3]; HPLM + 10% dialyzed FBS) | AUC of viability dose-response curve ([3]; RPMI 5 mM glucose + 10% FBS) | AUC of viability dose-response curve [3, 4] |
| --- | --- | --- | --- | --- | --- | --- | --- | --- | --- |
| FC(F)(F)c1ccc(/C=C/c2nc(COc3ccc(CCCCn4ccnn4)cc3)co2)cc1 | 338 | 309 | 362 | 360 | 359 | 381 | 445 | 411 | 374 |
| C[C@]\12CC[C@H](O)CC1=C/CC3C2CC[C@@]\4(C)C3C\C=C4[N]5C=NC6=C5C=CC=C6 (stereo not given in full) | 469 | 465 | 470 | 461 | 454 | 461 | 428 | 455 | 466 |
| CN1[C@@H]2CC(OC(=O)[C@@H](CO)c3ccccc3)C[C@H]1[C@H]1O[C@H]12 (stereo not given in full) | 474 | 469 | 435 | 452 | 417 | 451 | 445 | 443 | 442 |
| NC1(Cc2ccc(Cl)cc2)CCN(c2ncnc3[nH]ccc23)CC1 | 425 | 384 | 393 | 418 | 395 | 381 | 377 | 357 | 352 |
| CCC[C@H](NC(=O)/C(C#N)=C/c1cccc(Br)n1)c1ccccc1 | 449 | 447 | 444 | 437 | 454 | 448 | – | – | – |
| CC(C)(C)c1cc(NC(=O)Nc2ccc(-c3cn4c(n3)sc3cc(OCCN5CCOCC5)ccc34)cc2)no1 | 468 | 409 | 442 | 432 | 394 | 435 | 188 | 232 | 176 |
| COc1cccc2cc(-c3nc(C4CCC(C(=O)O)CC4)n4ncnc(N)c34)[nH]c12 (stereo not given) | 292 | 307 | 308 | 338 | 358 | 359 | 315 | 327 | 329 |
| CCN(CC)CC#CCOC(=O)C(O)(c1ccccc1)C1CCCCC1 (stereo not given) | 460 | 475 | 472 | 468 | 473 | 465 | 458 | 476 | 471 |
| OC[C@H]1O[C@@H](O[C@@H]2[C@@H](CO)O[C@](O)(CO)[C@H]2O)[C@H](O)[C@@H](O)[C@H]1O | 456 | 447 | 436 | 448 | 453 | 444 | 458 | 460 | 457 |
| Cc1c(CN2CCN(C(=O)[C@H](C)O)CC2)sc2c(N3CCOCC3)nc(-c3cnc(N)nc3)nc12 | 401 | 338 | 345 | 318 | 352 | 308 | 285 | 304 | 284 |
| CN1[C@@H]2CC[C@H]1CC(OC(=O)c1c[nH]c3ccccc13)C2 (stereo not given in full) | 463 | 468 | 466 | 436 | 459 | 444 | – | – | – |
| CC1(C)CCC[C@]2(C)[C@H]3CC(=O)O[C@]3(C)CC[C@@H]12 | 468 | 456 | 453 | 473 | 468 | 440 | 470 | 463 | 461 |
| CCCCCOC(=O)NC\1=N\C(=O)N(\C=C1F)[C@@H]2O[C@H](C)[C@@H](O)[C@H]2O | 460 | 443 | 442 | 413 | 434 | 458 | 468 | 466 | 469 |
| C\C1=C\C(=O)OC2=C1C=CC(=C2)O | 436 | 457 | 452 | 456 | 470 | 439 | 452 | 455 | 434 |
| CCc1cc(Nc2nccc(-c3c(-c4ccc(OC)c(C(=O)Nc5c(F)cccc5F)c4)nc4ccccn34)n2)c(OC)cc1N1CCC(N2CCN([S+](C)(=O)[O-])CC2)CC1 | 453 | 451 | 453 | 459 | 464 | 457 | 423 | 435 | 386 |
| CNC(=O)c1ccc(-c2cnc3ncc(Cc4ccc5ncccc5c4)n3n2)cc1F | 469 | 461 | 460 | 460 | 454 | 449 | 458 | 466 | 463 |
| OC1=C(O)C2=C(\C=C/C(=O)O2)C=C1 | 470 | 466 | 467 | 454 | 469 | 465 | 423 | 430 | 436 |

| Structure (SMILES) | AUC of viability dose-response curve ([1]; HPLM + 10% dialyzed FBS) | AUC of viability dose-response curve ([1]; RPMI 5 mM glucose + 10% FBS) | AUC of viability dose-response curve [1, 4] | AUC of viability dose-response curve ([2]; HPLM + 10% dialyzed FBS) | AUC of viability dose-response curve ([2]; RPMI 5 mM glucose + 10% FBS) | AUC of viability dose-response curve [2, 4] | AUC of viability dose-response curve ([3]; HPLM + 10% dialyzed FBS) | AUC of viability dose-response curve ([3]; RPMI 5 mM glucose + 10% FBS) | AUC of viability dose-response curve [3, 4] |
| --- | --- | --- | --- | --- | --- | --- | --- | --- | --- |
| Cc1cc(OCCCc2c(C(=O)O)n(Cc3cccnc3)c3c(-c4c(COc5ccc(N6CCN([S+](C)(=O)[O-])CC6)cc5)nn(C)c4C)cccc23)cc(C)c1Cl | 452 | 441 | 446 | 452 | 418 | 443 | 441 | 441 | 439 |
| O=C(OC)[C@]12CC[C@@]3(C)[C@]4(C)CC[C@H]5[C@@](C)(C)C(=O)C(=C[C@]5(C)C4=CC(=O)[C@@H]3[C@@H]2C[C@](C)(C)CC1)C#N | 407 | 404 | 396 | 408 | 372 | 381 | 393 | 408 | 370 |
| CC(C)C(C)/C=C/C(C)C1CCC2C3=CC=C4CC(O)CCC4(C)C3CCC21C (stereo not given) | 460 | 468 | 457 | 474 | 426 | 445 | 383 | 454 | 458 |
| CC1=C(/C=C/C(C)=C/C=C/C(C)=C/C=C/C=C(C)/C=C/C=C(C)/C=C/C2=C(C)CCCC2(C)C)C(C)(C)CCC1 | 469 | 465 | 440 | 450 | 444 | 459 | 477 | 458 | 474 |
| COC(=O)Nc1nc2cc(C(=O)c3cccs3)ccc2[nH]1 | 193 | 206 | 242 | 297 | 247 | 269 | 212 | 156 | 211 |
| CC1=NN(c2ccc(C)c(C)c2)C(=O)/C1=N/Nc1cccc(-c2cccc(C(=O)O)c2)c1O | 448 | 430 | 426 | 431 | 448 | 428 | 453 | 448 | 442 |
| NC[C@H]1CC[C@H](C(=O)O)CC1 | – | – | – | 455 | 475 | 448 | 443 | 456 | 456 |
| ClC1=C(N\C2=N\CCN2)C3=NSN=C3C=C1 | 461 | 465 | 455 | 434 | 440 | 428 | 419 | 427 | 432 |
| C=C(C)[C@@H]1CC[C@]2(C(=O)O)CC[C@]3(C)[C@H](CC[C@@H]4[C@@]5(C)CC[C@H](O)C(C)(C)[C@@H]5CC[C@]43C)[C@@H]12 | 445 | 461 | 427 | 452 | 473 | 466 | 420 | 410 | 397 |
| Cl.Cl.Cl.O[C@@H](COc1cccc2ncccc12)CN1CCN([C@@H]2c3ccccc3[C@@H]3[C@H](c4ccccc42)C3(F)F)CC1 | 418 | 391 | 395 | 404 | 397 | 401 | 421 | 418 | 449 |
| Cc1nc(NC(=O)N2CCC[C@H]2C(N)=O)sc1-c1ccnc(C(C)(C)C(F)(F)F)c1 | 424 | 386 | 399 | – | – | – | 384 | 431 | 400 |
| COc1nccc(-c2c(-c3ccc(F)cc3)ncn2C2CCNCC2)n1 | 452 | 455 | 453 | – | – | – | 460 | 375 | 454 |
| C[C@]12CC[C@@H]3c4ccc(OC(=O)N(CCCl)CCCl)cc4CC[C@H]3[C@@H]1CC[C@@H]2OP(=O)([O-])[O-].[Na+].[Na+] | – | – | – | 406 | 460 | 455 | 429 | 397 | 382 |
| CC(=O)O[C@H]1C(=O)[C@]2(C)[C@@H](O)C[C@H]3OC[C@@]3(OC(C)=O)C2[C@H](OC(=O)C4=CC=CC=C4)[C@]5(O)C[C@H](OC(=O)[C@H](O)[C@@H](NC(=O)C6=CC=CC=C6)C7=CC=CC=C7)\C(=C1/C5(C)C)C (stereo not given in full) | 148 | 143 | 195 | – | – | – | – | – | – |
| CO[C@H]1/C=C/O[C@@]2(C)Oc3c(C)c(O)c4c(O)c(c5c(nc6cc(C)ccn65)c4c3C2=O)NC(=O)/C(C)=C\C=C\[C@H](C)[C@H](O)[C@@H](C)[C@@H](O)[C@@H](C)[C@H](OC(C)=O)[C@@H]1C | – | – | – | – | – | – | 410 | 394 | 375 |
| C[C@@H](NC1=CC=CC=C1C(O)=O)C/2=C/C(=C\N3C(=O)/C=C(\N=C23)N4CCOCC4)C | 407 | 359 | 370 | 338 | 331 | 336 | – | – | – |
| CC(C)[C@@H](N(CCCN)C(=O)C1=CC=C(C)C=C1)C/2=N/C3=CC(=CC=C3C(=O)N2CC4=CC=CC=C4)Cl | 61 | 66.9 | 97.9 | 123 | 82.4 | 106 | – | – | – |
